In general, IC50 refers to the point on the concentration scale where inhibition reaches its midpoint. Read a high IC50 as weaker potency in that assay. A word on the inhibition: it is the share of the control response that was lost under treatment. Higher therefore signals a strong effect.

We go through six compounds from ChEMBL document CHEMBL1158260, “Six lignans from Phyllanthus myrtifolius” (J Nat Prod, 1996).

Structures are written as SMILES. Active and inactive are the calls of the source. The rule behind the calls is not given here.

Test [1] deals with Human immunodeficiency virus type 1 reverse transcriptase (Human immunodeficiency virus 1) (UniProt Q72547). The test is described as follows: (§1) Inhibition of HIV1 reverse transcriptase.
Test [2] can be described thus: Inhibition of human DNA polymerase alpha.
Test [3] concerns the target Human immunodeficiency virus type 1 reverse transcriptase (Human immunodeficiency virus 1, UniProt Q72547). Described as §1.
Test [4] deals with Human immunodeficiency virus type 1 reverse transcriptase (Human immunodeficiency virus 1) (UniProt Q72547). The test is described as follows: Increase in HIV1 reverse transcriptase activity at 18.9 uM relative to control.
For test [5] the target is unchanged. The test is described as follows: Increase in HIV1 reverse transcriptase activity at 1.89 uM.
Test [6] shares this target. The test is described as follows: Inhibition of HIV1 reverse transcriptase at 10 uM.

Consider `COc1cc(-c2c(C)c(CO)c(O[C@@H]3O[C@H](CO)[C@@H](O)[C@H](O)[C@H]3O)c3cc(OC)c(OC)cc23)ccc1O`, for which the result in test [1] was inactive.

With `COc1cc2cc3c(c(-c4ccc5c(c4)OCO5)c2cc1OC)COC3=O` [RETROJUSTICIDIN B], the half-inhibitory concentration (IC50) in test [2] is 989 µM; in test [3], 5.5 µM.

Regarding `COCc1cc2cc(OC)c(OC)cc2c(-c2ccc3c(c2)OCO3)c1C=O` [PHYLLAMYRICIN B], the IC50 in test [2] was determined as 289 µM; in test [3], 3.5 µM.

Consider `COc1cc2c(O[C@@H]3O[C@H](CO)[C@@H](O)[C@H](O)[C@H]3O)c(CO)c(CO)c(-c3ccc4c(c3)OCO4)c2cc1OC`, for which, in test [1], the outcome was inactive.

Consider `COc1cc2c(O[C@@H]3O[C@H](CO)[C@@H](O)[C@H](O)[C@H]3O)c(CO)c(C)c(-c3ccc4c(c3)OCO4)c2cc1OC`, for which the Activity in test [4] was found to be 65%; in test [5], 210%.

`COc1cc2cc3c(c(-c4ccc5c(c4)OCO5)c2cc1OC)C(=O)OC3OC` (centres undefined): the inhibition in test [6] stood at 20%.
